Results as given in PMC9823006 (Nature Communications, 2023).
Several values for one entry are separate records, joined by “and”; a condition that tells them apart may be missing. Equal entries are not always repeated.

Assays:
Kal^Sec14 = molecular target: T1, Kal^Sec14 (Rattus norvegicus, UniProt P97924, N62Y/T46S); test: Liposome flotation binding assay (Accudenz gradient, Western blot); conditions: Suppl. Fig. 9b,c; for Densitometry values for the Western blots, Fraction 1, Ave. / Densitometry values for the Western blots, Fraction 2, Ave. / Densitometry values for the Western blots, Fraction 3, Ave. / Densitometry values for the Western blots, Fraction 4, Ave.: average, biological replication ≥ 3; for Densitometry values for the Western blots, Fraction 1 / Densitometry values for the Western blots, Fraction 2 / Densitometry values for the Western blots, Fraction 3 / Densitometry values for the Western blots, Fraction 4: individual experiments (Exp. 1-4)
T1 construct: 19.4 kDa); His6 (TEV-cleavable) (N, cleaved yes); made in house; host or cells: E. coli BL21(DE3)
Method: (§1) The synthetic and natural lipids used in flotation assays were purchased from Avanti Polar Lipids, Inc. (Supplementary Table 2). All powdered lipids were dissolved in chloroform per the manufacturer’s instructions. Liposomes were prepared as previously described. […] Individual test lipids were dried together with the control lipid mix under a nitrogen stream and lyophilized overnight. Each dried lipid film was reconstituted to a final concentration of 1 mM in HN buffer containing 20 mM HEPES (pH 7.4) and 150 mM NaCl. Each final lipid mixtures consisted of 52% DOPC, 20% DOPE, 5% DOPS, 15% cholesterol and 8% tested lipid; inclusion of a trace amount of fluorescent lipid (Liss Rhod PE) allowed for localization of liposomes following gradient fractionation (see below). Each lipid mixture underwent five freeze-thaw cycles separated by vigorous vortexing each time it was thawed. Using a mini-extruder, unilamellar liposomes were prepared by passing each lipid mixture 21 times through a polycarbonate membrane of 100-nm pore size. Hydrated lipid mixtures were stored at −20 °C for up to 1 month; liposomes were freshly prepared for each experiment.
(§2) Flotation assays were conducted following the protocol previously described. Accudenz (Accurate Chemical and Scientific Corp., Westbury, NY) solutions (80 and 20% weight/vol) were prepared in HN buffer. To remove any particulate material, the protein to be tested was first centrifuged at 436,000 g at 4 °C for 15 min in a TL-100 ultracentrifuge using a Beckman TLA100.2 fixed angle rotor. Freshly prepared unilamellar liposomes (50 μl) were combined with 0.2 μg of the centrifuged protein and incubated at room temperature for 30 min. The entire liposome/protein mixture was then combined with 50 μl of 80% Accudenz at the bottom of an ultracentrifuge tube and carefully mixed to completion by pipetting. The resulting mixture was overlayered with […] of 20% Accudenz and then with 50 μl of HN buffer. Samples were centrifuged at 259,000 g at 4 °C for 30 min in the same ultracentrifuge using a Beckman TLS55 swinging bucket rotor. Gradients were then divided into four 100-μl fractions, which were carefully collected from the bottom of the tube using gel loading micropipette tips. Each fraction was analyzed for liposome and protein content using spectrophotometry (546-nm excitation/571-nm emission) and Western blot, respectively. Only those assays with at least 90% of the Liss Rhod PE marker recovered in the top fraction (fraction 1) were used for Western bloting analysis.
For Western bloting analysis, equal aliquots of each gradient fraction were denatured in 1× Laemmli sample buffer, fractionated on 15% acrylamide gels, and transferred to PVDF membranes. The protein content was detected using a custom-made rabbit antibody to the Sec14 domain of Kalirin (CT302[69], 1:3000) and an HRP-tagged goat anti-rabbit IgG (H + L) secondary antibody (catalog # 31460, 1:6000; ThermoFisher Scientific). SuperSignal West chemiluminescent substrate (Thermo Scientific) and a Syngene PXi digital imaging system (Synoptics Group) were used to visualize blots, with exposures adjusted to be in the linear range. After background subtraction, bands were quantified using the GeneSys software provided with the imaging system, and data were represented as a proportion of total protein recovered. Uncropped blots, quantification of each data point and exact P-values are provided in the Source Data file. […]
a. Representative Western blots from flotation assays with Kal Sec14 alone (Control), and Kal Sec14 with the control lipid mix (Lipo) or with the lipid mix containing the indicated additional lipid. After binding and separation of liposome bound Kal Sec14 from unbound Kal Sec14 on Accudenz gradients, the protein content of four gradient fractions was dete rmined by immunoblot; liposomes were recovered from the top fraction (fraction 1). Source data are […]

KalbSec14 [1] = molecular target: T2, KalbSec14 (Rattus norvegicus, UniProt P97924, N62Y/T46S); test: as above; conditions: for binding of Kal^bSec14 to liposomes containing the lipid: Golgi-mixture liposomes with 8% test lipid, result in words; for Fraction 1 protein content (top fraction, liposome-bound), densitometry, Ave. / Fraction 2 protein content, densitometry, Ave. / Fraction 3 protein content, densitometry, Ave. / Fraction 4 protein content (bottom fraction, unbound), densitometry, Ave.: mean of independent experiments; for Fraction 1 protein content (top fraction, liposome-bound), densitometry: normalized to total protein recovered from each gradient
T2 construct: His6 (TEV-cleavable) (N, cleaved yes); made in house; host or cells: E. coli BL21(DE3)
Method: Unilamellar liposomes formed by mixing synthetic dioleoyl phospholipids and cholesterol in proportions mimicking the membranes of the trans-Golgi network (Golgi-mixture) were incubated with Kal^bSec14. An Accudenz gradient was used to separate liposome-bound proteins, which were recovered from the top of the gradient (fraction 1), from unbound proteins, which remained at the bottom (fraction 4). Protein levels in each fraction were analyzed by Western blotting with an antibody to the Sec14 domain of Kalirin.
as §1, §2
For Western bloting analysis, equal aliquots of each gradient fraction were denatured in 1× Laemmli sample buffer, fractionated on 15% acrylamide gels, and transferred to PVDF membranes. The protein content was detected using a custom-made rabbit antibody to the Sec14 domain of Kalirin (CT302[69], 1:3000) and an HRP-tagged goat anti-rabbit IgG (H + L) secondary antibody (catalog # 31460, 1:6000; ThermoFisher Scientific). SuperSignal West chemiluminescent substrate (Thermo Scientific) and a Syngene PXi digital imaging system (Synoptics Group) were used to visualize blots, with exposures adjusted to be in the linear range.

KalbSec14 [2] = molecular target: T2, KalbSec14; test: Isothermal titration calorimetry (preliminary); format: binding; conditions: preliminary ITC, data not shown
[3] = normalized to total protein recovered, test lipid 8% of liposome lipid
[4] = single experiments, normalized to total protein recovered, test lipid 8% of liposome lipid
[5] = single experiments, test lipid 8% of liposome lipid

SMILES | Densitometry values for the Western blots, Fraction 1, Ave. (Kal^Sec14) | Densitometry values for the Western blots, Fraction 2, Ave. (Kal^Sec14) | Densitometry values for the Western blots, Fraction 3, Ave. (Kal^Sec14) | Densitometry values for the Western blots, Fraction 4, Ave. (Kal^Sec14) | Densitometry values for the Western blots, Fraction 1 (Kal^Sec14) | Densitometry values for the Western blots, Fraction 2 (Kal^Sec14) | Densitometry values for the Western blots, Fraction 3 (Kal^Sec14) | Densitometry values for the Western blots, Fraction 4 (Kal^Sec14) | binding of Kal^bSec14 to liposomes containing the lipid (KalbSec14 [1]) | Fraction 1 protein content (top fraction, liposome-bound), densitometry, Ave. (KalbSec14 [1]; [3]) | Fraction 2 protein content, densitometry, Ave. (KalbSec14 [1]; [3]) | Fraction 3 protein content, densitometry, Ave. (KalbSec14 [1]; [3]) | Fraction 4 protein content (bottom fraction, unbound), densitometry, Ave. (KalbSec14 [1]; [3]) | Fraction 2 protein content, densitometry (KalbSec14 [1]; [4]) | Fraction 3 protein content, densitometry (KalbSec14 [1]; [4]) | Fraction 4 protein content (bottom fraction, unbound), densitometry (KalbSec14 [1]; [4]) | Fraction 1 protein content (top fraction, liposome-bound), densitometry (KalbSec14 [1]; [5]) | ITC signal (KalbSec14 [2])
CCCCCCCCCCCCCC(=O)OC[C@@H](O)COP(=O)(O)OCC(O)CO (mixture of isomers) [LPG14:0, 1-myristoyl-2-hydroxy-sn-glycero-3-phospho-(1'-rac-glycerol)] | 0.05 | 0.0118 | 0.0754 | 0.86 | 0.0538 and 0.045 and 0.06 | 0.00506 and 0.000399 and 0.03 | 0.0633 and 0.055 and 0.11 | 0.88 and 0.90 and 0.80 | fail to interact | 0.05 | 0.00765 | 0.0849 | 0.86 | 0.00729 and 0.00538 and 0.01 | 0.07 and 0.09 | 0.89 and 0.86 and 0.83 | – | –
CCCCCCCCCCCCCC(=O)OC[C@H](COP(=O)([O-])OCC[N+](C)(C)C)OC(=O)CCCCCCCCCCCCC [DMPC, 1,2-dimyristoyl-sn-glycero-3-phosphocholine] | 0.03 | 0.01 | 0.11 | 0.85 | 0.0333 and 0.0235 and 0.03 | 0.00764 and 0.00497 and 0.0174 | 0.08 and 0.10 and 0.15 | 0.87 and 0.81 | precludes binding | 0.0259 | 0.0121 | 0.11 | 0.85 | – | 0.10 and 0.15 and 0.0759 | 0.86 and 0.83 and 0.87 | 0.03 and 0.0163 and 0.0322 | –
CCCCCCCCCCOP(=O)([O-])OCC[N+](C)(C)C [FC10, decylphosphocholine] | – | – | – | – | – | – | – | – | – | – | – | – | – | – | – | – | – | no ITC signal was observed

Now from value to molecule:

Densitometry values for the Western blots, Fraction 1, Ave. (Kal^Sec14) | Densitometry values for the Western blots, Fraction 2, Ave. (Kal^Sec14) | Densitometry values for the Western blots, Fraction 3, Ave. (Kal^Sec14) | Densitometry values for the Western blots, Fraction 4, Ave. (Kal^Sec14) | Densitometry values for the Western blots, Fraction 1 (Kal^Sec14) | Densitometry values for the Western blots, Fraction 2 (Kal^Sec14) | Densitometry values for the Western blots, Fraction 3 (Kal^Sec14) | Densitometry values for the Western blots, Fraction 4 (Kal^Sec14) | binding of Kal^bSec14 to liposomes containing the lipid (KalbSec14 [1]) | Fraction 1 protein content (top fraction, liposome-bound), densitometry, Ave. (KalbSec14 [1]; [3]) | Fraction 2 protein content, densitometry, Ave. (KalbSec14 [1]; [3]) | Fraction 3 protein content, densitometry, Ave. (KalbSec14 [1]; [3]) | Fraction 4 protein content (bottom fraction, unbound), densitometry, Ave. (KalbSec14 [1]; [3]) | Fraction 2 protein content, densitometry (KalbSec14 [1]; [4]) | Fraction 3 protein content, densitometry (KalbSec14 [1]; [4]) | Fraction 4 protein content (bottom fraction, unbound), densitometry (KalbSec14 [1]; [4]) | Fraction 1 protein content (top fraction, liposome-bound), densitometry (KalbSec14 [1]; [5]) | ITC signal (KalbSec14 [2]) | SMILES
0.0225 | 0.0117 | 0.17 | 0.80 | 0.0325 and 0.0143 and 0.02 | 0.00684 and 0.00931 and 0.019 | 0.10 and 0.16 and 0.24 | 0.86 and 0.82 and 0.72 | fail to interact | 0.028 | 0.00535 | 0.18 | 0.79 | – | – | 0.70 and 0.76 and 0.89 | 0.0252 and 0.03 | – | CCCCCCCCCCCCC(=O)OC[C@@H](O)COP(=O)(O)OC1C(O)C(O)C(O)C(O)C1O (some centres unmarked) [LPI13:0, 1-tridecanoyl-2-hydroxy-sn-glycero-3-phospho-(1'-myo-inositol)]
0.05 | 0.00866 | 0.09 | 0.86 | 0.07 and 0.05 and 0.025 and 0.0554 | 0.00695 and 0.01 and 0.00643 and 0.0108 | 0.07 and 0.05 and 0.16 | 0.86 and 0.89 and 0.90 and 0.78 | fail to interact | 0.03 | 0.0069 | 0.09 | 0.88 | – | – | 0.88 and 0.93 and 0.85 and 0.84 | – | – | CCCCCCCCCCCCC(=O)OC[C@@H](O)COP(=O)(O)OC[C@H](N)C(=O)O [LPS13:0, 1-tridecanoyl-sn-glycero-3-phospho-L-serine]
